The source of these data is US7947688B2, “N-[3-(3-substituted-pyrazolo[1,5-a]pyrimidin-7-yl)phenyl]-sulfonamides, and compositions, and methods related thereto” (Ferrer Internacional, S.A., priority 2003, dated 2011).

In one assay the target is α2-GABAA receptor (Rattus norvegicus, UniProt P18508+P23576). Description: Ligand-binding assay, radiolabeled flumazenil competition, rat spinal cord membranes. The following applies: for inhibition at 10 µM: read-out: % Inhibition (10^−5 M), affinity for α2-GABAA receptor; for inhibition at 0.1 µM: read-out: % Inhibition (10^−7 M), affinity for α2-GABAA receptor. As for the experimental part:
Determination of the affinity of test compounds for α1- and α2-GABAA receptor.
Male Sprague-Dawley rats weighing 200-250 g at the time of experiment were used. After decapitation of the animal, the cerebellum (tissue that mostly contains α1-GABAA receptor) and spinal cord (tissue that mostly contains α2-GABAA receptor) were removed. The membranes were prepared according to the method by J. Lameh et al. (Prog. Neuro-Psychopharmacol. Biol. Psychiatry, 24, 979-991, 2000). Once the tissues weighed, they were suspended in 50 mM Tris.HCl (pH 7.7), 1:40 (v/v), homogenized and then centrifuged at 20000 g for 10 min at 7° C. The resulting pellet was resuspended under the same conditions and centrifuged again. The pellet was finally resuspended on a minimum volume and kept at −80° C. overnight. On the next day, the process was repeated until the final pellet was resuspended at a ratio of 1:10 (v/v).
Affinity was determined by competitive tests using radiolabeled flumazenil as ligand. The tests were performed according to the methods described by S. Arbilla et al. (Eur. J. Pharmacol., 130, 257-263, 1986); and Y. Wu et al. (Eur. J. Pharmacol., 278, 125-132, 1995). The membranes containing the study receptors, flumazenil (radiolabeling at a final concentration of 1 nM) and ascending concentrations of test compounds (in a total volume of 500 μl in […] [ph 7.4] Tris.HCl buffer) were incubated. Simultaneously, the membranes were only incubated with the radiolabeled flumazenil (total binding, 100%) and in the presence of an elevated concentration of unradiolabeled flumazenil (non-specific binding, % estimation of radiolabeled ligand). The reactions started on adding the radiolabeled ligand followed by incubation for 60 minutes at 0° C. At the end of the incubation period, the tubes were filtered using a Brandel Mod. M-48R harvester and then washed three times with cold test buffer. The harvester was fitted with a GF/B filter that retained the membranes containing the receptors and the radiolabeled ligand which had been bound to the receptors. Then the filters were removed and left till dry. Once dried, the filters were cut, placed in vials with scintillation liquid and left under stirring overnight. The next day the filters were counted using a Packard Mod. Tricarb scintillation counter.
X: amount of bound ligand for every concentration of compound.
T: total binding, maximum amount bound to the radiolabeled ligand.
N: non-specific binding, amount of radiolabeled ligand bound in a non-specific way irrespective of the receptor used.
Every concentrations of compound were tested in duplicate and their mean values were used to determine the experimental values of % specific binding versus the concentration of compound. […] Inhibition constants (Ki) were calculated from the IC50 values according to Cheng-Prusoff's formula (Y. Cheng y W. H. Prusoff, Biochem. Pharmacol., 22(23), 3099-3108, 1973).

Another assay concerns male CD1 mice. In words: Predictive sedation-hypnosis test in mice (motor activity, crossings). Type of assay: in vivo. The following applies: single equimolecular intraperitoneal dose, crossings over 30 min after dosing (first 5 min discarded) versus control. As for the experimental part:
• In vivo determination of predictive sedative-hypnotic action.
The in vivo effects of these compounds were assessed by a predictive sedation-hypnosis test in mice (D. J. Sanger et al., Eur. J. Pharmacol., 313, 35-42, 1996; and G. Griebel et al., Psychopharmacology, 146, 205-213, 1999). Groups of 5-8 male CD1 mice, weighing 22-26 g at the time of test, were used. The test compounds were administered in single equimolecular intraperitoneal doses, suspended in 0.25% agar with one drop of Tween in a volume of 10 ml/kg. Control animals received the vehicle alone. Using an Actisystem DAS16 (Panlab, S. L., Spain) the crossings (number of counts) were recorded for each mouse at 5-min intervals during a period of 30 minutes after dosing. The inhibition percentage of crossings of treated animals versus control animals (the first 5 min were discarded) was calculated.

Each structure is given as a SMILES string.

Consider `CCN(c1cccc(-c2ccnc3c(C(=O)c4ccc(OC)cc4)cnn23)c1)S(C)(=O)=O` [Example 58, N-ethyl-N-{3-[3-(4-methoxybenzoyl)-pyrazolo[1,5-a]pyrimidin-7-yl]-phenyl}-methanesulfonamide], for which, on α2-GABAA receptor, the inhibition at 10 µM is 93.8% and the inhibition at 0.1 µM is 24%. For the same molecule, the “% Motor Activity Inhibition” value in the assay on male CD1 mice is recorded as 93.31%.

With `Cc1ccc(C(=O)c2cnn3c(-c4cccc(N(C)S(C)(=O)=O)c4)ccnc23)cc1` [Example 63, N-methyl-N-{3-[3-(4-methylbenzoyl)-pyrazolo[1,5-a]pyrimidin-7-yl]-phenyl}-methanesulfonamide], on α2-GABAA receptor, the inhibition at 10 µM is 91.3% and the inhibition at 0.1 µM was determined as 0%. For the same molecule, in the assay with male CD1 mice, the “% Motor Activity Inhibition” value is reported as 95.32%.

Turning to `CCN(c1cccc(-c2ccnc3c(C(=O)c4ccccn4)cnn23)c1)S(C)(=O)=O` [Example 40, N-ethyl-N-{3-[3-(pyridin-2-carbonyl)-pyrazolo[1,5-a]pyrimidin-7-yl]-phenyl}-methanesulfonamide], on α2-GABAA receptor, the inhibition at 10 µM was determined as 99.5% and the inhibition at 0.1 µM was 47.3%. For the same molecule, the “% Motor Activity Inhibition” value in the assay on male CD1 mice is reported as 94.32%.

For the molecule `O=C(c1cccs1)c1cnn2c(-c3cccc(N4CCCS4(=O)=O)c3)ccnc12` [Example 22, 7-(3-(2-isothiazolidinyl-1,1-dioxide)-phenyl)-3-(thiophene-2-carbonyl)-pyrazolo[1,5-a]pyrimidine], on α2-GABAA receptor, the inhibition at 10 µM came out at 98.2% and the inhibition at 0.1 µM was found to be 24.2%. Moreover, in the assay with male CD1 mice, the “% Motor Activity Inhibition” value is on record as 91.39%.

As to `CCN(C(C)=O)c1cccc(-c2ccnc3c(C#N)cnn23)c1` [Zaleplon, reference compound], the “% Motor Activity Inhibition” value with male CD1 mice is listed as 47.17%.

In the case of `C#CCN(c1cccc(-c2ccnc3c(C(=O)c4cccs4)cnn23)c1)S(C)(=O)=O` [Example 16, N-2-propynyl-N-{3-[3-(thiophene-2-carbonyl)-pyrazolo[1,5-a]pyrimidin-7-yl]-phenyl}-methanesulfonamide], the “% Motor Activity Inhibition” value in the assay with male CD1 mice is listed as 95.36%.

In the case of `CCN(c1cccc(-c2ccnc3c(C#N)cnn23)c1)S(=O)(=O)CC` [Example 29, N-[3-(3-cyano-pyrazolo[1,5-a]pyrimidin-7-yl)-phenyl]-N-ethyl-ethanesulfonamide], at α2-GABAA receptor, the inhibition at 10 µM stood at 92.7% and the inhibition at 0.1 µM was 13.4%. In the assay on male CD1 mice, the “% Motor Activity Inhibition” value was 93.73%.

As for `CN(c1cccc(-c2ccnc3c(C(=O)c4cccs4)cnn23)c1)S(=O)(=O)c1ccc(Cl)cc1` [Example 79, N-methyl-N-{3-[3-(thiophene-2-carbonyl)-pyrazolo[1,5-a]pyrimidin-7-yl]-phenyl}-4-chlorobenzenesulfonamide], on α2-GABAA receptor, the inhibition at 10 µM was determined as 52.9% and the inhibition at 0.1 µM is 0%. For the same molecule, the “% Motor Activity Inhibition” value in the assay with male CD1 mice was 51.50%.

Regarding `CCN(c1cccc(-c2ccnc3c(C(=O)c4ccccc4)cnn23)c1)S(C)(=O)=O` [Example 70, N-ethyl-N-{3-[3-(benzoyl)-pyrazolo[1,5-a]pyrimidin-7-yl]-phenyl}-methanesulfonamide], on α2-GABAA receptor, the inhibition at 10 µM amounted to 99.9% and the inhibition at 0.1 µM stood at 63.4%. The “% Motor Activity Inhibition” value with male CD1 mice is reported as 94.54%.

Consider `N#Cc1cnn2c(-c3cccc(N4CCCS4(=O)=O)c3)ccnc12` [Example 33, 7-(3-(2-isothiazolidinyl-1,1-dioxide)-phenyl)-3-cyano-pyrazolo[1,5-a]pyrimidine], for which, on α2-GABAA receptor, the inhibition at 10 µM was determined as 45.2% and the inhibition at 0.1 µM stood at 0%. Further, the “% Motor Activity Inhibition” value in the assay with male CD1 mice is on record as 77.58%.

Turning to `CCN(c1cccc(-c2ccnc3c(C(=O)c4ccccc4)cnn23)c1)S(=O)(=O)CC` [Example 72, N-ethyl-N-{3-[3-(benzoyl)-pyrazolo[1,5-a]pyrimidin-7-yl]-phenyl}-ethanesulfonamide], on α2-GABAA receptor, the inhibition at 10 µM came out at 98.6% and the inhibition at 0.1 µM is 44.9%. In addition, the “% Motor Activity Inhibition” value with male CD1 mice was 93.78%.

Consider `CCCN(c1cccc(-c2ccnc3c(C(=O)c4cccs4)cnn23)c1)S(=O)(=O)CC` [Example 17, N-propyl-N-{3-[3-(thiophene-2-carbonyl)-pyrazolo[1,5-a]pyrimidin-7-yl]-phenyl}-ethanesulfonamide], for which, on α2-GABAA receptor, the inhibition at 10 µM was 74.5% and the inhibition at 0.1 µM was 0%. In the assay on male CD1 mice, the “% Motor Activity Inhibition” value was 94.21%.

Take `CCN(c1cccc(-c2ccnc3c(C#N)cnn23)c1)S(C)(=O)=O` [Example 5, N-[3-(3-cyano-pyrazolo[1,5-a]pyrimidin-7-yl)-phenyl]-N-ethyl-methanesulfonamide]: the “% Motor Activity Inhibition” value in the assay on male CD1 mice is 80.91%.

On to `CN(c1cccc(-c2ccnc3c(C(=O)c4cccs4)cnn23)c1)S(=O)(=O)c1cccs1` [Example 87, N-methyl-N-{3-[3-(thiophene-2-carbonyl)-pyrazolo[1,5-a]pyrimidin-7-yl]-phenyl}-2-thiophene-sulfonamide], for which, on α2-GABAA receptor, the inhibition at 10 µM came to 97.6% and the inhibition at 0.1 µM amounted to 65.1%. The “% Motor Activity Inhibition” value with male CD1 mice was 74.88%.

For `CN(c1cccc(-c2ccnc3c(C(=O)c4cccs4)cnn23)c1)S(=O)(=O)c1cccc(Cl)c1` [Example 78, N-methyl-N-{3-[3-(thiophene-2-carbonyl)-pyrazolo[1,5-a]pyrimidin-7-yl]-phenyl}-3-chlorobenzenesulfonamide], on α2-GABAA receptor, the inhibition at 10 µM stood at 36.2% and the inhibition at 0.1 µM amounted to 0%. Further, the “% Motor Activity Inhibition” value in the assay on male CD1 mice is 36.12%.

For the molecule `CCCN(c1cccc(-c2ccnc3c(C(=O)c4cccs4)cnn23)c1)S(=O)(=O)C(C)C` [Example 25, N-propyl-N-{3-[3-(thiophene-2-carbonyl)-pyrazolo[1,5-a]pyrimidin-7-yl]-phenyl}-2-propane-sulfonamide], at α2-GABAA receptor, the inhibition at 10 µM turned out to be 78.9% and the inhibition at 0.1 µM was 9.1%. For the same molecule, the “% Motor Activity Inhibition” value with male CD1 mice is reported as 92.79%.

As for `CN(c1cccc(-c2ccnc3c(C(=O)c4cccs4)cnn23)c1)S(=O)(=O)c1ccccc1C#N` [Example 82, N-methyl-N-{3-[3-(thiophene-2-carbonyl)-pyrazolo[1,5-a]pyrimidin-7-yl]-phenyl}-2-cyanobenzene-sulfonamide], at α2-GABAA receptor, the inhibition at 10 µM was 31.8% and the inhibition at 0.1 µM came to 0%. Moreover, the “% Motor Activity Inhibition” value in the assay on male CD1 mice is recorded as 39.87%.

As for `C#CCN(c1cccc(-c2ccnc3c(C#N)cnn23)c1)S(=O)(=O)CC` [Example 38, N-[3-(3-cyano-pyrazolo[1,5-a]pyrimidin-7-yl)-phenyl]-N-2-propynyl-ethanesulfonamide], at α2-GABAA receptor, the inhibition at 10 µM worked out at 77.6% and the inhibition at 0.1 µM was 17.4%. Further, in the assay on male CD1 mice, the “% Motor Activity Inhibition” value is given as 94.85%.

Turning to `CCS(=O)(=O)N(C)c1cccc(-c2ccnc3c(C(=O)c4cccs4)cnn23)c1` [Example 20, N-methyl-N-{3-[3-(thiophene-2-carbonyl)-pyrazolo[1,5-a]pyrimidin-7-yl]-phenyl}-ethanesulfonamide], on α2-GABAA receptor, the inhibition at 10 µM was determined as 97.7% and the inhibition at 0.1 µM worked out at 40.3%. The “% Motor Activity Inhibition” value in the assay with male CD1 mice was 95.23%.

Regarding `CCN(c1cccc(-c2ccnc3c(C(=O)c4cccs4)cnn23)c1)S(=O)(=O)CC` [Example 18, N-ethyl-N-{3-[3-(thiophene-2-carbonyl)-pyrazolo[1,5-a]pyrimidin-7-yl]-phenyl}-ethanesulfonamide], at α2-GABAA receptor, the inhibition at 10 µM stood at 93.7% and the inhibition at 0.1 µM came out at 20.7%. Further, the “% Motor Activity Inhibition” value with male CD1 mice is 93.39%.

In the case of `CCN(c1cccc(-c2ccnc3c(C(=O)c4cccs4)cnn23)c1)S(C)(=O)=O` [Example 6, N-ethyl-N-{3-[3-(thiophene-2-carbonyl)-pyrazolo[1,5-a]pyrimidin-7-yl]-phenyl}-methanesulfonamide], the “% Motor Activity Inhibition” value with male CD1 mice was 66.55%.
